Source: ChEMBL document CHEMBL5380858 (J Med Chem, 2023)

Experiments:
SARS-CoV-2 [1] = test: Antiviral activity against SARS CoV-2 USA-WA1/2020 infected in human Calu-3 cells pretreated for 30 to 60 mins followed by viral infection and measured after 40 to 44 hrs by sytox green staining based analysis; format: functional, organism-based, Severe acute respiratory syndrome coronavirus 2
[2] = Cytotoxicity against human Calu-3 cells assessed as reduction in cell viability incubated for 40 to 44 hrs by celltiter-glo assay; format: toxicity, cell-based; conditions: time 40-44 hrs
[3] = Selectivity index, ratio of CC50 for cytotoxicity against human calu-3 cells to EC50 for antiviral activity against SARS CoV-2 USA-WA1/2020 infected in human Calu-3 cells; format: toxicity, cell-based; conditions: read-out: Ratio CC50/EC50
SARS-CoV-2 [4] = test: Antiviral activity against SARS CoV-2 USA-WA1/2020 infected in human Huh7.5 cells pretreated for 30 to 60 mins followed by viral infection and measured after 48 hrs post infection by sytox green staining based immunofluorescence analysis; format: functional, organism-based; conditions: Severe acute respiratory syndrome coronavirus 2, USA-WA1/2020, Huh7.5; for EC90: time 2910-2940 min
[5] = Cytotoxicity against human Huh7.5 cells assessed as reduction in cell viability incubated for 48 hrs by celltiter glo assay; format: toxicity, cell-based, Huh-7.5
[6] = Selectivity index, ratio of CC50 for cytotoxicity against human Huh7.5 cells to EC50 for antiviral activity against SARS CoV-2 USA-WA1/2020 infected in human Huh7.5 cells; format: toxicity, cell-based; conditions: read-out: Ratio CC50/EC50
SARS-CoV-2 [7] = test: Antiviral activity against SARS CoV-2 USA-WA1/2020 infected in Vero/TMPRSS2 cells pretreated for 30 to 60 mins followed by viral infection and measured after 38 hrs post infection by sytox green staining based immunofluorescence analysis; format: functional, organism-based; conditions: Severe acute respiratory syndrome coronavirus 2, USA-WA1/2020, Vero/TMPRSS2; for EC90: time 2310-2340 min
[8] = Cytotoxicity against african green monkey Vero/TMPRSS2 cells assessed as reduction in cell viability incubated for 38 hrs by celltiter glo assay; format: toxicity, cell-based; conditions: chlorocebus aethiops
[9] = Selectivity index, ratio of CC50 for african green monkey Vero/TMPRSS2 cells to EC50 for antiviral activity against SARS CoV-2 USA-WA1/2020 infected in Vero/TMPRSS2 cells; format: toxicity, cell-based; conditions: read-out: Ratio CC50/EC50
SARS-CoV-2 [10] = test: Antiviral activity against SARS CoV-2 USA-WA1/2020 infected in human iPSC-lung cells pretreated for 30 to 60 mins followed by viral infection and measured after 24 hrs post infection by sytox green staining based analysis; format: functional, organism-based; conditions: Severe acute respiratory syndrome coronavirus 2, USA-WA1/2020, iPSC-Lung cell; for EC90: time 1470-1500 min
[11] = Cytotoxicity against human iPSC-lung cells assessed as reduction in number of nuclei incubated for 24 hrs by celltiter glo assay; format: toxicity, cell-based, iPSC-Lung cell
[12] = Selectivity index, ratio of CC50 for cytotoxicity against human iPSC-lung cells to EC50 for antiviral activity against SARS CoV-2 USA-WA1/2020 infected in human iPSC-lung cells; format: toxicity, cell-based; conditions: read-out: Ratio CC50/EC50
SARS-CoV-2 [13] = test: Potency index, ratio of remdesivir EC50 to test compound EC50 for antiviral activity against SARS CoV-2 USA-WA1/2020 infected in human Calu-3 cells pretreated for 30 to 60 mins followed by viral infection and measured after 40 to 44 hrs by sytox green staining based analysis; format: functional, Severe acute respiratory syndrome coronavirus 2; conditions: time 2430-2700 min
SARS-CoV-2 [14] = test: Antiviral activity against SARS CoV-2 USA-WA1/2020 infected in human Calu-3 cells assessed as reduction in viral RNA pretreated for 30 mins followed by viral infection and measured after 48 hrs by qRT-PCR analysis; format: functional, organism-based; conditions: Severe acute respiratory syndrome coronavirus 2, USA-WA1/2020, Calu-3
[15] = Cytotoxicity against human Calu-3 cells assessed as reduction in cell viability incubated for 48.5 hrs by CellTiter-Glo assay; format: toxicity, cell-based
[16] = Severe acute respiratory syndrome coronavirus 2, USA-WA1/2020, Calu-3
[17] = Severe acute respiratory syndrome coronavirus 2, USA-WA1/2020, Calu-3, time 2430-2700 min

| SMILES | selectivity ratio [3] | selectivity ratio [6] | selectivity ratio [9] | other results |
| --- | --- | --- | --- | --- |
| CCCCCCCC/C=C\CCCCCCCCOC[C@H](COP(=O)(O)OC[C@H]1O[C@@](C#N)(c2ccc3c(N)ncnn23)[C@H](O)[C@@H]1O)OCc1ccc(OC)c(F)c1 | 839 | > 1850 | > 333 | EC50 (SARS-CoV-2 [1]; [16]): 0.07 µM; EC90 (SARS-CoV-2 [1]; [17]): 0.149 µM; CC50 [2]: 58.7 µM; EC50 (SARS-CoV-2 [4]): 0.054 µM; EC90 (SARS-CoV-2 [4]): 0.095 µM; CC50 at 48 h [5]: > 100 µM; EC50 (SARS-CoV-2 [7]): 0.3 µM; EC90 (SARS-CoV-2 [7]): 0.554 µM; CC50 at 38 h [8]: > 100 µM; EC50 (SARS-CoV-2 [10]): 0.082 µM; EC90 (SARS-CoV-2 [10]): 0.175 µM; CC50 at 24 h [11]: > 20 µM; selectivity ratio [12]: > 243; Ratio EC50 (SARS-CoV-2 [13]): 3.3 |
| CCCCCCCCCCCCCCCCCCOC[C@H](COP(=O)(O)OC[C@H]1O[C@@](C#N)(c2ccc3c(N)ncnn23)[C@H](O)[C@@H]1O)OCCC1CCCCC1 | 685 | 758 |  |  |
| CCCCCCCCCCCCCCCCCCOC[C@H](COP(=O)(O)OC[C@H]1O[C@@](C#N)(c2ccc3c(N)ncnn23)[C@H](O)[C@@H]1O)OCc1cccc(C(F)(F)F)c1 | 418 |  |  |  |
| CCCCCCCCCCCCCCCCCCOC[C@H](COP(=O)(O)OC[C@H]1O[C@@](C#N)(c2ccc3c(N)ncnn23)[C@H](O)[C@@H]1O)OCc1ccc(C(F)(F)F)cc1 | 509 |  |  |  |
| CCCCCCCCCCCCCCCCCCOC[C@H](COP(=O)(O)OC[C@H]1O[C@@](C#N)(c2ccc3c(N)ncnn23)[C@H](O)[C@@H]1O)OCc1ccccc1C#N | 909 | > 980 | > 337 | EC50 (SARS-CoV-2 [7]): 0.296 µM; CC50 at 38 h [8]: > 1010 µM |
| CCCCCCCCCCCCCCCCCCOC[C@H](COP(=O)(O)OC[C@H]1O[C@@](C#N)(c2ccc3c(N)ncnn23)[C@H](O)[C@@H]1O)OCc1ccc(C#N)cc1 | 1400 | 1970 |  |  |
| CCCCCCCCCCCCCCCCCCOC[C@H](COP(=O)(O)OC[C@H]1O[C@@](C#N)(c2ccc3c(N)ncnn23)[C@H](O)[C@@H]1O)OCc1cccc(C#N)c1 | 1810 | 2070 |  |  |
| CCCCCCCC/C=C\CCCCCCCCOC[C@H](COP(=O)(O)OC[C@H]1O[C@@](C#N)(c2ccc3c(N)ncnn23)[C@H](O)[C@@H]1O)OCc1ccccc1 | 410 | > 917 | > 341 | EC50 (SARS-CoV-2 [1]; [16]): 0.193 µM; EC90 (SARS-CoV-2 [1]; [17]): 0.324 µM; CC50 [2]: 79.2 µM; EC50 (SARS-CoV-2 [4]): 0.109 µM; EC90 (SARS-CoV-2 [4]): 0.224 µM; CC50 at 48 h [5]: > 100 µM; EC50 (SARS-CoV-2 [7]): 0.293 µM; EC90 (SARS-CoV-2 [7]): 0.57 µM; CC50 at 38 h [8]: > 100 µM; EC50 (SARS-CoV-2 [10]): 0.267 µM; EC90 (SARS-CoV-2 [10]): 0.555 µM; CC50 at 24 h [11]: > 20 µM; selectivity ratio [12]: > 74 |
| CCCCCCCCCCCCCCCCOC[C@H](COP(=O)(O)OC[C@H]1O[C@@](C#N)(c2ccc3c(N)ncnn23)[C@H](O)[C@@H]1O)OCc1ccc(OC)c(F)c1 | 1480 | 1180 | > 246 | selectivity ratio [12]: > 153 |
| CCCCCCCCCCCCCCOC[C@H](COP(=O)(O)OC[C@H]1O[C@@](C#N)(c2ccc3c(N)ncnn23)[C@H](O)[C@@H]1O)OCc1ccccc1 | > 469 | > 636 | > 110 |  |
| CCCCCCCCCCCCCCCCOC[C@H](COP(=O)(O)OC[C@H]1O[C@@](C#N)(c2ccc3c(N)ncnn23)[C@H](O)[C@@H]1O)OCc1ccccc1 | 934 | > 763 | > 248 |  |
| CCCCCCCCCCCCCCCCCCOC[C@H](COP(=O)(O)OC[C@H]1O[C@@](C#N)(c2ccc3c(N)ncnn23)[C@H](O)[C@@H]1O)OCc1cccc(F)c1 | 422 | 392 | > 369 |  |
| CCCCCCCCCCCCCCCCCCOC[C@H](COP(=O)(O)OC[C@H]1O[C@@](C#N)(c2ccc3c(N)ncnn23)[C@H](O)[C@@H]1O)OCCCCCCCC | > 255 | > 177 | > 129 | EC50 (SARS-CoV-2 [1]; calu-3): 0.16 µM; EC90 (SARS-CoV-2 [1]; time 2430-2700 min): 0.625 µM |
| CCCCCCCCCCCCCCCCCCOC[C@H](COP(=O)(O)OC[C@H]1O[C@@](C#N)(c2ccc3c(N)ncnn23)[C@H](O)[C@@H]1O)OCc1ccc(OC)c(F)c1 | 656 | 1170 | > 561 | selectivity ratio [12]: > 119 |
| N#C[C@@]1(c2ccc3c(N)ncnn23)O[C@H](CO)[C@@H](O)[C@H]1O [GS-441524] | > 666 |  |  | EC50 (SARS-CoV-2 [14]): 0.15 µM; EC90 (SARS-CoV-2 [14]; time 48.5 hrs): 0.18 µM; CC50 at 48.5 h [15]: > 100 µM |
